Experimental data reported in patent publication US9266878B2, “Phosphatidylinositol 3-kinase inhibitors” (Gilead Calistoga LLC, priority 2012, dated 2016).

Assays:
Assay in all cases: Enzymatic activity of PI3K isoforms, TR-FRET assay (PIP3 formation)
Format in all cases: biochemical
PI3Kα = PI3Kα (Homo sapiens (Human), UniProt P42336); details: bound given in uM
Description: (§1) Enzymatic activity of the class I PI3K isoforms was measured using a time-resolved fluorescence resonance energy transfer (TR-FRET) assay that monitors formation of the product 3,4,5-inositol triphosphate molecule (PIP3), as it competes with fluorescently labeled PIP3 for binding to the GRP-1 pleckstrin homology domain protein. An increase in […] product results in a decrease in TR-FRET signal as the labeled fluorophore is displaced from the GRP-1 protein binding site.
(§2) Class I PI3K isoforms were expressed and purified as heterodimeric recombinant proteins. All assay reagents and buffers for the TR-FRET assay were purchased from Millipore. […] After an assay reaction time of 30 minutes at 25° C., reactions were terminated with a final concentration of 10 mM EDTA, 10 nM labeled-PIP3, and 35 nM Europium labeled GRP-1 detector protein before reading TR-FRET on an Envision plate reader (Ex: 340 nm; Em: 615/665 nm; 100 μs delay and 500 μs read window).
(§3) IC50 are reported in units of nM. These assays generally produced results within 3-fold of the reported mean.

PI3Kδ = PI3Kδ (Homo sapiens (Human), UniProt O00329); details: bound given in nM
Description: as §1, §2, §3

PI3Kγ = PI3Kγ (Homo sapiens (Human), UniProt P48736)
Description: as §1
Class I PI3K isoforms were expressed and purified as heterodimeric recombinant proteins. All assay reagents and buffers for the TR-FRET assay were purchased from Millipore.
IC50 are reported in units of nM.

PI3Kγ, sequence (P48736 whole entry): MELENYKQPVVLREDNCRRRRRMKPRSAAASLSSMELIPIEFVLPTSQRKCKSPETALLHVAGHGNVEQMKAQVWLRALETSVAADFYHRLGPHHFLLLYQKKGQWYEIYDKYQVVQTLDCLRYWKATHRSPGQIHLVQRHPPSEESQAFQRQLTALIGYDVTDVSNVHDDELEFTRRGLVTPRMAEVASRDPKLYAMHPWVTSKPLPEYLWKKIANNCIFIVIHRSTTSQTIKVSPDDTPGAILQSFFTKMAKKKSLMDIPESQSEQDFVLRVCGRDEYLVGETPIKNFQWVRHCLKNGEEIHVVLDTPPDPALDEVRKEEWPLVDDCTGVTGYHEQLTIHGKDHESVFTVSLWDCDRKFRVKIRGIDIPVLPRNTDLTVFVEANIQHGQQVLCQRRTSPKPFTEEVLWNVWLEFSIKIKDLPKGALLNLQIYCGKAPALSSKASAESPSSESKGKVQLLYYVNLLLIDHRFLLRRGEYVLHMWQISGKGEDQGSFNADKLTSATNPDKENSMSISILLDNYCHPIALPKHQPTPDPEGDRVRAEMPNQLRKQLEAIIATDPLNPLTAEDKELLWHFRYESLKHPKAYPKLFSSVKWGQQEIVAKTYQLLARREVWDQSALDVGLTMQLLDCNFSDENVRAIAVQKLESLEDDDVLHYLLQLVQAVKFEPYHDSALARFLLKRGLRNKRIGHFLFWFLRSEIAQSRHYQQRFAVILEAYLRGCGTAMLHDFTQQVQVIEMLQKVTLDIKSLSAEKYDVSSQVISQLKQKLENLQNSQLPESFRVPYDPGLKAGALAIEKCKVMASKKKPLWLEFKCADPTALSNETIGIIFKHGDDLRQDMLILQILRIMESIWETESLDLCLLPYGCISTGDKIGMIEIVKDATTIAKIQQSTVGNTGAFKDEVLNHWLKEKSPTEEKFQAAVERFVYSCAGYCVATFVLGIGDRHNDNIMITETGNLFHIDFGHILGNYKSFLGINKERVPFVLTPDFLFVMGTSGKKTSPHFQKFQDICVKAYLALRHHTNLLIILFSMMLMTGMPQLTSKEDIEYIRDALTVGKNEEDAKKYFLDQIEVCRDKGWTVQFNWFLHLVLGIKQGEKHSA
PI3Kγ, sequence (Q8WYR1 whole entry partner): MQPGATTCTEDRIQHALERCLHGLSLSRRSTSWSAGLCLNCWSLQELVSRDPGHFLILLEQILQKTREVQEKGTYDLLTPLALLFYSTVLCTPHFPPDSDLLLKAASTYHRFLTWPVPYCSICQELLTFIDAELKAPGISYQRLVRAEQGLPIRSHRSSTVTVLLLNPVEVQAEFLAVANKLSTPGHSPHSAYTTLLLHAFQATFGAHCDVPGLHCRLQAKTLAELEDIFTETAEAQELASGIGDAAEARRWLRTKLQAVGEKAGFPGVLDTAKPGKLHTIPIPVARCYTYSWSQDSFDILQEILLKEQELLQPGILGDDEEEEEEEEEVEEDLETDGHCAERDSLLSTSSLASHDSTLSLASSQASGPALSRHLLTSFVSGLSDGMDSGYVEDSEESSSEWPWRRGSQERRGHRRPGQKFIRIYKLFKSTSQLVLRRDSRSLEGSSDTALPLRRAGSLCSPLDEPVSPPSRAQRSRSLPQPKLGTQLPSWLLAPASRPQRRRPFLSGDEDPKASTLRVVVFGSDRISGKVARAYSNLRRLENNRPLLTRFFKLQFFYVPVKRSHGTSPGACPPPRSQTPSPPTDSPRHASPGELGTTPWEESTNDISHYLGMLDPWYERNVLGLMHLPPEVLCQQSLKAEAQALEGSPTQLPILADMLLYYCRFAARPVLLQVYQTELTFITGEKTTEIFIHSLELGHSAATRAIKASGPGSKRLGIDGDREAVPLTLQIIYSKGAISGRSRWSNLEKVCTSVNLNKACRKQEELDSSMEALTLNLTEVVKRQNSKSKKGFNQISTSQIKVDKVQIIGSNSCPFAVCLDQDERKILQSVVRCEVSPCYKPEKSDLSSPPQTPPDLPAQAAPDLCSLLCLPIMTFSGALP
PI3Kα, sequence (P42336 whole entry, the tested form may be a part, canonical isoform): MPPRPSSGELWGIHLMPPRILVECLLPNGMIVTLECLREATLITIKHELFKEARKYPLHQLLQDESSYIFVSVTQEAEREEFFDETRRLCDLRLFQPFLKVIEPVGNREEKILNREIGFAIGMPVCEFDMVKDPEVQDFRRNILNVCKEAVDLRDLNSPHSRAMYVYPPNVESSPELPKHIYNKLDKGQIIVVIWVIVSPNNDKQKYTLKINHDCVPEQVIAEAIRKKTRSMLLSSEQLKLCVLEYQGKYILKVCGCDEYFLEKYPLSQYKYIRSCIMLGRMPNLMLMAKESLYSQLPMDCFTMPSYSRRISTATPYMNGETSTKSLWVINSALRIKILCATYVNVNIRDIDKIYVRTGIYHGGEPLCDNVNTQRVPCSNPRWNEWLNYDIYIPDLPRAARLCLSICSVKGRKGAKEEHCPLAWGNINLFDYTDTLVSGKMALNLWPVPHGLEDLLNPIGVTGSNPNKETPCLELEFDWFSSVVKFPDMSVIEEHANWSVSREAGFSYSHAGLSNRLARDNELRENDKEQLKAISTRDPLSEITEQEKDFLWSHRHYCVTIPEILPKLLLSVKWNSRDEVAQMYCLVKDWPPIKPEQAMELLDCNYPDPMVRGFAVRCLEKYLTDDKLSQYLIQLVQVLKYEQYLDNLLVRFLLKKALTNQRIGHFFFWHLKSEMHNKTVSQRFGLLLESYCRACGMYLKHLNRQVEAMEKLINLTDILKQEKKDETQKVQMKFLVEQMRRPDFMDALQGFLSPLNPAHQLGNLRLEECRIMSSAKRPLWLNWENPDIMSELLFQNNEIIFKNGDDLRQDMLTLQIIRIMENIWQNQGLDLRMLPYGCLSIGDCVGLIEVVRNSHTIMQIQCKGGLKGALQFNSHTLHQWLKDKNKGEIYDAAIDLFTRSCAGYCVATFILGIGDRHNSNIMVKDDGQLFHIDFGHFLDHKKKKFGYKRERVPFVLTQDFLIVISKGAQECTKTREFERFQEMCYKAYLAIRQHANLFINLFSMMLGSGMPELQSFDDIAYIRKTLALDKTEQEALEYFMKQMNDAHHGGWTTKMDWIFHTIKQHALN
PI3Kα, sequence (P27986 whole entry partner, the tested form may be a part, canonical isoform): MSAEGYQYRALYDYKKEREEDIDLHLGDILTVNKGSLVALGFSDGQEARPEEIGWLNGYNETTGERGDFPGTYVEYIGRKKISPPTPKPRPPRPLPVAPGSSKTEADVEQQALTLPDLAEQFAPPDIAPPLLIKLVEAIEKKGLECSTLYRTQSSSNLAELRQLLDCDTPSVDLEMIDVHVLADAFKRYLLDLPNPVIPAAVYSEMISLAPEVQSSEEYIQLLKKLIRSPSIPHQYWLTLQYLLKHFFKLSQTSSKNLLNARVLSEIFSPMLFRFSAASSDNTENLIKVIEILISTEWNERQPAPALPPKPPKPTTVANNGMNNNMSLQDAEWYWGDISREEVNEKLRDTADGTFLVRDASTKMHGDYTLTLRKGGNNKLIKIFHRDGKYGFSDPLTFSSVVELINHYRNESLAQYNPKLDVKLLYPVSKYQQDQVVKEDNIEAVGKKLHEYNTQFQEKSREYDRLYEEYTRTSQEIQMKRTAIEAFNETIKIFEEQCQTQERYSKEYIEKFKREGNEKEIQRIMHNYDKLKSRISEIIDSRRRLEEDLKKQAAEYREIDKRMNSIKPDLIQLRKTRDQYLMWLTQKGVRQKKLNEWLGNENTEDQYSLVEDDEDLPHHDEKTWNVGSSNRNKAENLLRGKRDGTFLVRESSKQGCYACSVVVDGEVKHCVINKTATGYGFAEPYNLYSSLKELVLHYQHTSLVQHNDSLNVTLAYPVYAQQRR
PI3Kδ, sequence (O00329 whole entry): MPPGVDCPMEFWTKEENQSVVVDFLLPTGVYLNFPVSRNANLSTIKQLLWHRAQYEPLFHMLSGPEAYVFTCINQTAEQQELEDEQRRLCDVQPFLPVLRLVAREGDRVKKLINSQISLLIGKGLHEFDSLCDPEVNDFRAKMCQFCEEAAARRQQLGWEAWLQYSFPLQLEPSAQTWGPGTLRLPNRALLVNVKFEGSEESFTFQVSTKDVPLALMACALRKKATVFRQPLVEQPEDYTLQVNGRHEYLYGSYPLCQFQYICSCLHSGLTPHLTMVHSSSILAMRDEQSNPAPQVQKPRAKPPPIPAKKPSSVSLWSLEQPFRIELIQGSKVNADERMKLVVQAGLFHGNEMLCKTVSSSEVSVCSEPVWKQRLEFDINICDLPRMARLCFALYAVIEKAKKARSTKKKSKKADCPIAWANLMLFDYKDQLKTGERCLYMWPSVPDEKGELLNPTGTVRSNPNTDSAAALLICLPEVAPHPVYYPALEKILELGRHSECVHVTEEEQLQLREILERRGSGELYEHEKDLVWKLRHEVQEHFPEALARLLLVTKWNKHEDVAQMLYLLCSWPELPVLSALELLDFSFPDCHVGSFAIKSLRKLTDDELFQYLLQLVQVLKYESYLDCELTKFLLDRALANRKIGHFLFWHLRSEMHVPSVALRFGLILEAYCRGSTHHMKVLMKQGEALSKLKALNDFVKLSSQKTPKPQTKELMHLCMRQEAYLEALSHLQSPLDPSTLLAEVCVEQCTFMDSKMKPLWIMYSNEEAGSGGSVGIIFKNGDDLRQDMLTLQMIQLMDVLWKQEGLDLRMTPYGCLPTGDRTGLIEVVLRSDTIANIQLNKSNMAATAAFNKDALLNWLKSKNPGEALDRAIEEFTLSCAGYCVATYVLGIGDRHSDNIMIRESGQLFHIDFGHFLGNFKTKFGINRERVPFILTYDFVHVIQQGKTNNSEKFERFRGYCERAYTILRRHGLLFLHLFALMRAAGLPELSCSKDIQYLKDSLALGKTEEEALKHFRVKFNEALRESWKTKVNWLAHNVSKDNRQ
PI3Kδ, sequence (P27986 whole entry partner): as the sequence (P27986 whole entry partner, the tested form may be a part, canonical isoform) above

Row | SMILES | IC50 (PI3Kα) [µM] | IC50 (PI3Kδ) [nM] | IC50 (PI3Kγ; bound given in uM) [µM] | IC50 (PI3Kγ; bound given in nM) [µM]
1 | Nc1ncnc(N[C@H](CO)c2nc3cccc(Cl)c3c(=O)n2-c2ccccc2)c1C#Cc1ccc(F)cn1 [139b] | > 1 | < 100 | > 1 | –
2 | Cc1ccc(F)c2nc([C@H](C)Nc3ncnc(N)c3C#Cc3cnccn3)n(-c3cccc(C#N)c3)c(=O)c12 [Compound 73a, (S)-3-(2-(1-((6-amino-5-(pyrazin-2-ylethynyl)pyrimidin-4-yl)amino)ethyl)-8-fluoro-5-methyl-4-oxoquinazolin-3(4H)-yl)benzonitrile] | > 1 | < 100 | > 1 | –
3 | C[C@H](Nc1ncnc(N)c1C#Cc1cnccn1)c1nc2cccc(F)c2c(=O)n1-c1ccccc1 [Compound 86a, (S)-2-(1-((6-amino-5-(pyrazin-2-ylethynyl)pyrimidin-4-yl)amino)ethyl)-5-fluoro-3-phenylquinazolin-4(3H)-one] | > 1 | < 100 | > 1 | –
4 | C[C@H](Nc1ncnc(N)c1C#Cc1ncccn1)c1nc2cccc(F)c2c(=O)n1-c1ccccc1 [Compound 109a, 2-(1-((6-amino-5-(pyrimidin-2-ylethynyl)pyrimidin-4-yl)amino)ethyl)-5-fluoro-3-phenylquinazolin-4(3H)-one] | > 1 | < 100 | > 1 | –
5 | C[C@H](Nc1ncnc(N)c1C#Cc1cnccn1)c1nc2cccc(Cl)c2c(=O)n1-c1cccnc1 [Compound 118a, (S)-2-(1-((6-amino-5-(pyrazin-2-ylethynyl)pyrimidin-4-yl)amino)ethyl)-5-chloro-3-(pyridin-3-yl)quinazolin-4(3H)-one] | > 1 | < 100 | > 1 | –
6 | Cc1cccc2nc([C@H](C)Nc3ncnc(N)c3C#Cc3cnccn3)n(-c3cccnc3)c(=O)c12 [Compound 119a, (S)-2-(1-((6-amino-5-(pyrazin-2-ylethynyl)pyrimidin-4-yl)amino)ethyl)-5-methyl-3-(pyridin-3-yl)quinazolin-4(3H)-one] | > 1 | < 100 | > 1 | –
7 | C[C@H](Nc1ncnc(N)c1C#Cc1ccc(F)cn1)c1nc2cccc(Cl)c2c(=O)n1N1CCOCC1 [Compound 121a, (S)-2-(1-((6-amino-5-((5-fluoropyridin-2-yl)ethynyl)pyrimidin-4-yl)amino)ethyl)-5-chloro-3-morpholinoquinazolin-4(3H)-one] | > 1 | < 100 | > 1 | –
8 | COc1cc(F)cc(C#Cc2c(N)ncnc2N[C@@H](C)c2nc3cccc(Cl)c3c(=O)n2N2CCOCC2)c1 [Compound 122a, (S)-2-(1-((6-amino-5-((3-fluoro-5-methoxyphenyl)ethynyl)pyrimidin-4-yl)amino)ethyl)-5-chloro-3-morpholinoquinazolin-4(3H)-one] | > 1 | < 100 | > 1 | –
9 | Cc1ccc(C#Cc2c(N)ncnc2N[C@@H](C)c2nc3cccc(Cl)c3c(=O)n2-c2ccccc2)nc1 [Compound 133a, (S)-2-(1-((6-amino-5-((5-methylpyridin-2-yl)ethynyl)pyrimidin-4-yl)amino)ethyl)-5-chloro-3-phenylquinazolin-4(3H)-one] | > 1 | < 100 | – | < 0.1
10 | C[C@H](Nc1ncnc(N)c1C#Cc1ccc(C(N)=O)cn1)c1nc2cccc(Cl)c2c(=O)n1-c1ccccc1 [Compound 135a, (S)-6-((4-amino-6-((1-(5-chloro-4-oxo-3-phenyl-3,4-dihydroquinazolin-2-yl)ethyl)amino)pyrimidin-5-yl)ethynyl)nicotinamide] | > 1 | < 100 | – | < 0.1
11 | Cc1nc(C#Cc2c(N)ncnc2N[C@@H](C)c2nc3cccc(Cl)c3c(=O)n2-c2ccccc2)ccc1F [Compound 140a, (S)-2-(1-((6-amino-5-((5-fluoro-6-methylpyridin-2-yl)ethynyl)pyrimidin-4-yl)amino)ethyl)-5-chloro-3-phenylquinazolin-4(3H)-one] | > 1 | < 100 | > 1 | –
12 | C[C@H](Nc1ncnc(N)c1C#CC1CCCC1)c1nc2cccc(Cl)c2c(=O)n1-c1ccccc1 [Compound 144a, (S)-2-(1-((6-amino-5-(cyclopentylethynyl)pyrimidin-4-yl)amino)ethyl)-5-chloro-3-phenylquinazolin-4(3H)-one] | > 1 | < 100 | > 1 | –

The remaining lines, values ahead:

Row | IC50 (PI3Kα) [µM] | IC50 (PI3Kδ) [nM] | IC50 (PI3Kγ; bound given in uM) [µM] | IC50 (PI3Kγ; bound given in nM) [µM] | SMILES
13 | > 1 | < 100 | > 1 | – | C[C@H](Nc1ncnc(N)c1C#Cc1ccc(F)cn1)c1nc2c(F)ccc(F)c2c(=O)n1-c1ccccc1 [Compound 4a, (S)-2-(1-(6-amino-5-((5-fluoropyridin-2-yl)ethynyl)pyrimidin-4-ylamino)ethyl)-5,8-difluoro-3-phenylquinazolin-4(3H)-one]
14 | > 1 | < 100 | > 1 | – | C[C@H](Nc1ncnc(N)c1C#Cc1ccc(F)cn1)c1nc2c(Cl)ccc(Cl)c2c(=O)n1-c1ccccc1 [Compound 11a, (S)-2-(1-(6-amino-5-((5-fluoropyridin-2-yl)ethynyl)pyrimidin-4-ylamino)ethyl)-5,8-dichloro-3-phenylquinazolin-4(3H)-one]
15 | > 1 | < 100 | > 1 | – | C[C@H](Nc1ncnc(N)c1C#Cc1ccc(F)cn1)c1nc2c(F)cccc2c(=O)n1-c1ccccc1 [Compound 13a, (S)-2-(1-(6-amino-5-((5-fluoropyridin-2-yl)ethynyl)pyrimidin-4-ylamino)ethyl)-8-fluoro-3-phenylquinazolin-4(3H)-one]
16 | > 1 | < 100 | > 1 | – | Cc1ccc(F)c2c(=O)n(-c3ccccc3)c([C@H](C)Nc3ncnc(N)c3C#Cc3ccc(F)cn3)nc12 [Compound 69a, (S)-2-(1-((6-amino-5-((5-fluoropyridin-2-yl)ethynyl)pyrimidin-4-yl)amino)ethyl)-5-fluoro-8-methyl-3-phenylquinazolin-4(3H)-one]
17 | > 1 | < 100 | > 1 | – | C[C@H](Nc1ncnc(N)c1C#Cc1cnccn1)c1nc2ccc(F)cc2c(=O)n1-c1ccccc1 [Compound 91a, (S)-2-(1-((6-amino-5-(pyrazin-2-ylethynyl)pyrimidin-4-yl)amino)ethyl)-6-fluoro-3-phenylquinazolin-4(3H)-one]
18 | > 1 | < 100 | > 1 | – | Cc1cccc2nc([C@H](C)Nc3ncnc(N)c3C#Cc3cnccn3)n(-c3cccc(F)c3)c(=O)c12 [Compound 106a, (S)-2-(1-((6-amino-5-(pyrazin-2-ylethynyl)pyrimidin-4-yl)amino)ethyl)-3-(3-fluorophenyl)-5-methylquinazolin-4(3H)-one]
19 | > 1 | < 100 | > 1 | – | C[C@H](Nc1ncnc(N)c1C#Cc1cnccn1)c1nc2cccc(F)c2c(=O)n1-c1cccnc1 [Compound 115a, (S)-2-(1-((6-amino-5-(pyrazin-2-ylethynyl)pyrimidin-4-yl)amino)ethyl)-5-fluoro-3-(pyridin-3-yl)quinazolin-4(3H)-one]
20 | > 1 | < 100 | – | < 0.1 | CCc1ccnc(C#Cc2c(N)ncnc2N[C@@H](C)c2nc3cccc(Cl)c3c(=O)n2-c2ccccc2)c1 [Compound 150a, (S)-2-(1-((6-amino-5-((4-ethylpyridin-2-yl)ethynyl)pyrimidin-4-yl)amino)ethyl)-5-chloro-3-phenylquinazolin-4(3H)-one]
